Values joined by “and” are separate entries in the source; they are usually repeats but may differ in a detail not shown here. Identical values can stand only once.
Assays:
[1] = test system: T1, Plasmodium falciparum Dd2-attB (parental line), asexual blood stages; experiment: microbe, parasite or virus in culture; parameters: replicate k of 3 (each line is one of three independent assays; the three lines of one compound and parasite line follow each other); conditions: n = 1; for Individual replicates / Log AC50 (M): 72 h; for AC50: Plasmodium falciparum, DD2, 72 h, read-out: Individual replicates / Log AC50 (converted)
T1 construct: Dd2-attB, the isogenic parental line
How it was run: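 Statistics: two-sided Student's t-test between parental and transgenic values, from three independent assays. The transgene encodes a fumarate-dependent DHODH from yeast, independent of the parasite mETC.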

[2] = test system: T2, Plasmodium falciparum Dd2-attB-ScDHODH (transgenic line expressing yeast DHODH), asexual blood stages; experiment: organism not typed; parameters: replicate k of 3 (each line is one of three independent assays; the three lines of one compound and parasite line follow each other); conditions: 72 h, n = 1; for AC50: read-out: Individual replicates / Log AC50 (converted)
T2 construct: Dd2-attB-ScDHODH, the transgenic line that expresses yeast DHODH
Protocol: The overexpression of the fumarate-dependent yeast DHODH confers resistance to compounds that inhibit the parasite mETC, or the parasite DHODH enzyme that depends on ubiquinone provided by the parasite mETC. Assays were performed in three independent assays on a subset of compounds, and differences between the Dd2-attB parental line and the ScDHODH transgenic line were analyzed using two-sided Student’s t-tests.

| Compound | Individual replicates / Log AC50 (M) [1] | AC50 [1] [µM] | Individual replicates / Log AC50 (M) [2] | AC50 [2] [µM] |
| --- | --- | --- | --- | --- |
| Oc1ccc(CNCc2ccc3c(c2)OCO3)c2cccnc12 [NCGC00183368-01] | -4.7986 Log AC50 (M) | 15.9 | -4.7486 Log AC50 (M) | 15.9 |
| CN1CCC(CNCc2nccc3c(=O)[nH]c(COc4ccc(Cc5ccccc5)cc4)nc23)C1 (stereo not shown) [NCGC00489856-01] | -4.7986 Log AC50 (M) and -4.8486 Log AC50 (M) | 15.9 |  | 17.8 |
| CCOc1ccc(-c2[nH]c3c(C#N)cnn3c2NC2CCCC2)cc1 [NCGC00120007-02] | -4.7486 Log AC50 (M) | 14.2 | -4.8486 Log AC50 (M) | 17.8 |
| CCOC(=O)C1(Cc2ccc(Cl)cc2)CCN(C(=O)c2cc(C)oc2C)CC1 [NCGC00426139-02] | -5.0986 Log AC50 (M) | 8.94 | -4.8986 Log AC50 (M) and -4.7986 Log AC50 (M) | 15.9 |
| Cc1nn2c(c1-c1ccccc1-c1ccccc1)N(Cc1cccc(C#N)c1)CCC2 [NCGC00499314-01] | -5.1486 Log AC50 (M) and -5.0486 Log AC50 (M) | 8.94 | -4.9986 Log AC50 (M) and -5.0986 Log AC50 (M) | 10 |
| O=C(NC1=CC(=O)c2ccccc2C1=O)c1ccccc1 [NCGC00357425-01] | -5.5986 Log AC50 (M) and -5.7986 Log AC50 (M) and -5.3486 Log AC50 (M) |  | -5.6486 Log AC50 (M) (2×) and -5.2986 Log AC50 (M) |  |
| CN(C)C(=S)SN(C)C(=O)Nc1ccccc1 [NCGC00386444-01] | -5.7986 Log AC50 (M) | 1.78 | -5.7986 Log AC50 (M) | 2.25 |
| COc1ccc(NCc2ccc(O)c3ncccc23)nc1 [NCGC00241022-01] | -4.8486 Log AC50 (M) | 20 | -4.9486 Log AC50 (M) | 11.3 |
| Oc1ccc(CNc2ccc3ccccc3n2)c2cccnc12 [NCGC00241029-01] | -4.8986 Log AC50 (M) and -5.0486 Log AC50 (M) | 7.1 | -4.8986 Log AC50 (M) | 7.1 |
| C=CC(=O)Nc1cccc(C(OCCN2CCCCC2)c2cc3nccc(C(=O)OC(C)C)c3s2)c1 (stereo not shown) [NCGC00493267-01] | -5.1486 Log AC50 (M) and -5.0486 Log AC50 (M) | 8.94 | -5.0486 Log AC50 (M) and -4.7986 Log AC50 (M) | 7.97 |
| Oc1ccc(CNc2cccc(C(F)(F)F)c2)c2cccnc12 [NCGC00177833-02] |  | 17.8 | -4.7486 Log AC50 (M) | 15.9 |
| CCOC(=O)CCNc1cc(N2CCc3ccccc3CC2)nc(-c2cccnc2)n1 [NCGC00351550-02] | -4.8486 Log AC50 (M) (2×) and -4.7486 Log AC50 (M) |  | -5.0986 Log AC50 (M) and -4.7986 Log AC50 (M) |  |
| CN(C)CCCNC(=O)c1ccc(-c2cnc3c(O)cccc3c2)cc1 [NCGC00189502-01] | -4.9986 Log AC50 (M) | 7.1 | -5.0486 Log AC50 (M) and -4.8986 Log AC50 (M) | 7.97 |
| COC(=O)c1ccnc2cc(C(OCCN3CCCCC3)c3ccccc3Cl)[nH]c12 (stereo not shown) [NCGC00420857-01] | -5.2986 Log AC50 (M) and -5.1986 Log AC50 (M) | 4.48 | -5.0986 Log AC50 (M) | 5.03 |
| CC(C)c1c(-c2cnn(C(C)(C)C)c2)[nH]c2c(C#N)cnn2c1=O [NCGC00488278-02] |  | 15.9 | -4.7986 Log AC50 (M) | 10 |
| C/C=C(\C#N)C(=O)N1CCCN(c2cc(NCCC(=O)OC)nc(-c3ccccn3)n2)CC1 [NCGC00420778-01] |  | 15.9 |  | 14.2 |

Source: paper PMC7822874, “Chemoprotective antimalarials identified through quantitative high-throughput screening of Plasmodium blood and liver stage parasites” (Scientific Reports, 2021)
